Assay results as given in patent publication US7718385B2, “Bioactivation of alkylating agents for cancer treatment” (priority 2003, dated 2010).

Columns and labels:
[1] = tested on: UACC-257; settings: UACC-257, Melanoma, cited from earlier work
[2] = tested on: SW-620; settings: SW-620, Colon, cited from earlier work
[3] = tested on: M14; settings: M14, Melanoma, cited from earlier work
[4] = tested on: DU-145; settings: DU-145, Prostate, cited from earlier work
[5] = tested on: HL-60(TB); settings: cited from earlier work
[6] = tested on: NCI/ADR-RES; settings: cited from earlier work
[7] = tested on: MOLT-4; settings: MOLT-4, Leukemia, cited from earlier work
[8] = target: T1, recombinant AOR (Rattus norvegicus, UniProt P97584, Q160G/Q263G/Q264G/Q276G); assay: LC/MS/MS of enzymatic and nonenzymatic GSH adducts; type: biochemical; settings: incubations with AOR, GSH and NADPH, 1 h, 37° C.
T1 construct: made in house
T1 sequence (P97584 whole entry Q160G/Q263G/Q264G/Q276G): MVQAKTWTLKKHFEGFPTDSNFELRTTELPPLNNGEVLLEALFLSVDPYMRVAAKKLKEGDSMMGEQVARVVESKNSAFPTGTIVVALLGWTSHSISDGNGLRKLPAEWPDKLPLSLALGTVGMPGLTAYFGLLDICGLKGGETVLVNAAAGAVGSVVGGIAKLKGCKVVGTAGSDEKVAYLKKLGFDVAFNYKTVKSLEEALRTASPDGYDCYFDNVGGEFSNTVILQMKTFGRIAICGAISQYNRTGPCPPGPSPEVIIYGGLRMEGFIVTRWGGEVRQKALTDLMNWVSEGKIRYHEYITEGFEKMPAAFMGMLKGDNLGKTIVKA
Procedure: High Performance Liquid Chromatography with Tandem Mass Spectrometry (LC/MS/MS) of GSA Adducts. […] These reactions were incubated at 37° C. for 1 h. Controls lacking NAFPH were performed. Reactions were stopped and deproteinized with addition of 400 μl of ice-cold acetonitrile, spun at 3500×g for 10 min at 4° C., and the supernatants were evaporated to dryness under vacuum. Residual GSH and NADPH cofactors were removed using an Oasis C18 sample prep column (Waters Chromatography). Adducts were eluted with methanol, evaporated to dryness under vacuum, resuspended in […] of 0.1% acetic acid, and detected using liquid chromatography electrospray ionization tandem mass spectrometry performed in the positive ion mode. […] A flow rate of 0.1 ml/min and gradient of 0% buffer D (70% acetic acid (0.1%):30% acetonitrile) to 100% buffer E (20% acetic acid (0.1%):80% acetonitrile) over 30 min were used to resolve the compounds. Adducts were detected by monitoring for selected molecular ions or characteristic molecular fragments after MS/MS. Molecular fragments were obtained with 35% relative collusion energy.
Measuring GSH adduction is a commonly used technique for estimating covalent protein binding, and thus cytotoxicity, of a drug (Baillie and Kassahun, 2001). The nucleophilic thiol moiety of GSH effectively scavenges electrophilic molecules and its large size and charge prevent it from entering the active site of most enzymes. […] Daughter ions of adducts, which represent the loss of water (−18 m/z) or […] (−129 m/z), were common and monitored for in these experiments following MS/MS.
Enzymatic reduction occurred in incubations containing recombinant AOR, NADPH, and GSH, while companion nonenzymatic reductions lacked NADPH. […] However the NE irofulven-GSH adduct (FIG. 5B) was detected only after monitoring for a daughter ion (M+—H2)=536 m/z) and was 42-fold less abundant than the E adduct. […] Contrary to findings with irofulven, a great deal of NE illudin M-GSH adduct was detected in NADPH-deficient incubations.

[9] = tested on: RPMI-8226; settings: RPMI-8226, Leukemia, cited from earlier work
[10] = tested on: T-47D; settings: cited from earlier work
[11] = tested on: NCI-H522; settings: NCI-H522, Non-Small Cell Lung, cited from earlier work
[12] = target: recombinant rat AOR (Rattus norvegicus, UniProt P97584, Q160G/Q263G/Q264G/Q276G)
recombinant rat AOR, sequence (P97584 whole entry Q160G/Q263G/Q264G/Q276G): as above
Procedure: Varied concentrations of illudin M were added to a 200 μl 0.5× phosphate buffered saline (PBS) solution containing 115 ng of AOR and 43.4 nmoles NADPH, and incubated for 1 minute at 37° C. Reactions were then extracted with ethyl acetate containing piperine (internal standard), dried under vacuum, resuspended in HPLC buffer A (60% acetonitrile: 40% water), and injected into a Hewlett-Packard 1050 HPLC system equipped with a Luna C18 column (Phenomenex Inc.). Metabolites were separated using buffer A at a flow rate of 1 ml/min and quantified using diode array detection at 205 nm and previously reported extinction coefficients (Tanaka, et al., 1990). Vmax and Km were calculated using the HYPER program.
Rates were quantified from metabolite peak areas using reported extinction coefficients (Tanaka, et al., 1990; McMorris, et al., 1999).

[13] = tested on: SN12C; settings: cited from earlier work
[14] = Nonenzymatic reactivity of the 8,9-double bond with GSH (absorbance 330 nm); type: physicochemical; settings: 3.25 mM GSH, pH 7.4, 1 h, 30° C.
From the text: Reaction of the 8,9-double bond with GSH was followed spectrophotometrically at 330 nm.
The sulfhydryl group of GSH is a potent nucleophile that rapidly reacts with most electrophilic α,β-unsaturated carbonyl groups via a Michael-addition mechanism.

[15] = tested on: CCRF-CEM; settings: cited from earlier work

What does the source list for `CC1=C(CO)C2=C(C)C3(CC3)[C@@](C)(O)C(=O)C2=C1` [Irofulven, 6-hydroxymethylacylfulvene]?
GI50 [1]: 251 nM; TGI [1]: 5.01E−07; log(GI50) [1]: −6.6; log(LC50) [1]: −5.3; log(TGI) [1]: −6.3; CC50 ([1]; read-out: LC50): 5010 nM; GI50 [2]: 631 nM; TGI [2]: 3.16E−05; log(GI50) [2]: −6.2; log(TGI) [2]: −4.5; CC50 ([2]; read-out: LC50): ≥ 100000 nM; GI50 [3]: 251 nM; TGI [3]: 6.31E−07; log(GI50) [3]: −6.6; log(LC50) [3]: −5.7; log(TGI) [3]: −6.2; CC50 ([3]; read-out: LC50): 2000 nM; GI50 [4]: 100 nM; TGI [4]: 2.00E−07; log(GI50) [4]: −7; log(TGI) [4]: −6.7; CC50 ([4]; read-out: LC50): ≥ 100000 nM; GI50 ([5]; Leukemia): 251 nM; TGI ([5]; Leukemia): 2.00E−06; log(GI50) ([5]; Leukemia): −6.6; log(TGI) ([5]; Leukemia): −5.7; CC50 ([5]; read-out: LC50, Leukemia): ≥ 100000 nM; GI50 ([6]; Breast): 251 nM; TGI ([6]; Breast): 7.94E−07; log(GI50) ([6]; Breast): −6.6; log(LC50) ([6]; Breast): −5.3; log(TGI) ([6]; Breast): −6.1; CC50 ([6]; read-out: LC50, Breast): 5010 nM; GI50 [7]: 794 nM; TGI [7]: 2.00E−05; log(GI50) [7]: −6.1; log(TGI) [7]: −4.7; CC50 ([7]; read-out: LC50): ≥ 100000 nM; abundance of E (enzymatic) GSH adduct over NE (nonenzymatic) adduct [8]: 42 fold; GI50 [9]: 31600 nM; TGI [9]: 7.94E−05; log(GI50) [9]: −4.5; log(TGI) [9]: −4.1; CC50 ([9]; read-out: LC50): ≥ 100000 nM; GI50 ([10]; Breast): 200 nM; TGI ([10]; Breast): 2.51E−06; log(GI50) ([10]; Breast): −6.7; log(TGI) ([10]; Breast): −5.6; CC50 ([10]; read-out: LC50, Breast): ≥ 100000 nM; GI50 [11]: 158 nM; TGI [11]: 6.31E−07; log(GI50) [11]: −6.8; log(LC50) [11]: −5.1; log(TGI) [11]: −6.2; CC50 ([11]; read-out: LC50): 7940 nM; Vmax [12]: 275 nmol/min/mg; decrease in the rate of metabolism by AOR ([12]; relative to the illudins): 100 fold; GI50 ([13]; Renal): 398 nM; TGI ([13]; Renal): 5.01E−06; log(GI50) ([13]; Renal): −6.4; log(LC50) ([13]; Renal): −4.3; log(TGI) ([13]; Renal): −5.3; CC50 ([13]; read-out: LC50, Renal): 50100 nM; reactivity of the α,β-unsaturated ketone with GSH [14]: relatively resistant to nucleophilic attack; GI50 ([15]; Leukemia): 2000 nM; TGI ([15]; Leukemia): 3.16E−05; log(GI50) ([15]; Leukemia): −5.7; log(TGI) ([15]; Leukemia): −4.5; CC50 ([15]; read-out: LC50, Leukemia): ≥ 100000 nM
